Reference: US5869448A, “Cyclic CS-1 peptidomimetics, compositions and methods of using same” (Cytel Corporation, priority 1995, dated 1999)
Where “and” joins values, the source holds several entries; their conditions need not be identical. Equal values may be shown once. One block for each compound: values may come before it. Positions of bridges follow the written chain, without caps; N, C: chain ends. Non-standard residues stand in square brackets, D forms with d. Residues, ends and D or L forms follow the SMILES beside them. No end group written: not given here. *: point of attachment. Pen = CC(C)(S)[C@H](N)C(=O)O; PhAc = O=C(Cc1ccccc1)*

Tests used:
[1] = Retention of potency in PBS containing 10 percent mouse or human serum; type: in vitro ADME; conditions: PBS at 7.2-7.4 with 10 percent mouse or human serum
[2] = target: T1, VLA-4/CS-1 (Homo sapiens, UniProt P05556+P13612); assay: In vitro inhibition of binding of 51Cr-labeled Jurkat cells to solid phase-bound CS-1 peptide; type: cell-based
T1 construct: inflammatory cells that contain the VLA-4 receptor [Jurkat cells; host or cells: Jurkat (human T lymphoblastic line)
T1 sequence (P13612 34-1032): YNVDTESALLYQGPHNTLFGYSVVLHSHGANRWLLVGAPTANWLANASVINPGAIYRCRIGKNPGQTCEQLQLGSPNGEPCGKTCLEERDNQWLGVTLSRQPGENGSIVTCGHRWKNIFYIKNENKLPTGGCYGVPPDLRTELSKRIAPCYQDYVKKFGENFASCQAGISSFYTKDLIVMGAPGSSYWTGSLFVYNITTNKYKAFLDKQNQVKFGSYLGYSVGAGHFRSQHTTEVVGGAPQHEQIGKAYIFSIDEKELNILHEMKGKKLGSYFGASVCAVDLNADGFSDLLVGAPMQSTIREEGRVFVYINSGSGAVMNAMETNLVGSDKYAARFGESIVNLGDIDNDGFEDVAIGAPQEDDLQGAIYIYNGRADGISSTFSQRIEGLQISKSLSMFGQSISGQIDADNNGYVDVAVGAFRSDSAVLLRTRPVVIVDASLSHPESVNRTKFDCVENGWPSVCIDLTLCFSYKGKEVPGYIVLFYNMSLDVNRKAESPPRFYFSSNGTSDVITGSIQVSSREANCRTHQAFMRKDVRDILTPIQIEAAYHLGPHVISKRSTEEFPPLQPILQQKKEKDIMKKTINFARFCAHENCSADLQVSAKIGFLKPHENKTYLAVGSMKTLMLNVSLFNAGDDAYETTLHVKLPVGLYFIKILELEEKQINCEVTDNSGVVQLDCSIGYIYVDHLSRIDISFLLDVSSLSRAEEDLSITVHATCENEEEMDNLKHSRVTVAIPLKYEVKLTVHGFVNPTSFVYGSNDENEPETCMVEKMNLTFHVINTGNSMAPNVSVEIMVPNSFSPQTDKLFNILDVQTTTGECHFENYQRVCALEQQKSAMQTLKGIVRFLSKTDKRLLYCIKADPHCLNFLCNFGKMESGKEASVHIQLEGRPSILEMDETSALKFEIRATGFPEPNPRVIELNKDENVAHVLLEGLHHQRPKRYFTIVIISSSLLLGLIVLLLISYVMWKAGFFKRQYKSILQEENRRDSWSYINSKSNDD
T1 sequence (P05556 21-798): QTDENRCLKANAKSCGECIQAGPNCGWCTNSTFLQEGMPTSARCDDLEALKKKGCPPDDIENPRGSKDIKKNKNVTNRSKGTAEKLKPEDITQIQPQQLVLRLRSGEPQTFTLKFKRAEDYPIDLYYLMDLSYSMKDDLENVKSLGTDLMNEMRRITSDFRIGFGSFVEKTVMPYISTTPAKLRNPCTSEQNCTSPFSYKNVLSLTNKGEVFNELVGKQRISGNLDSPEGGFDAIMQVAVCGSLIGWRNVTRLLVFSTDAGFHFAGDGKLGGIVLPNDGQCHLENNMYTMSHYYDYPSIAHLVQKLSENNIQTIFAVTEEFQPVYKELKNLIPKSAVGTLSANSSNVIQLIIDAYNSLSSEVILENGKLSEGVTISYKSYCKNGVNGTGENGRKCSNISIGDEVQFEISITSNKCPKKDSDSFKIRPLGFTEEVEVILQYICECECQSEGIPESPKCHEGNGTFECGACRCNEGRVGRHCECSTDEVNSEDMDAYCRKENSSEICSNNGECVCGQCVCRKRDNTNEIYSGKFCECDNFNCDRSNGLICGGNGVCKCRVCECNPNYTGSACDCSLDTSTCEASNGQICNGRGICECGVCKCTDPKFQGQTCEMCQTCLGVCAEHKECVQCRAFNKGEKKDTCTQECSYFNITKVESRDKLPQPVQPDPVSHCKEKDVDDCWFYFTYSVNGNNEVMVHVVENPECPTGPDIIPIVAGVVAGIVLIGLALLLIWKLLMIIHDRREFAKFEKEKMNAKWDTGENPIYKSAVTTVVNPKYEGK
Procedure: Binding inhibition is measured here as a concentration of peptide that inhibits one-half the binding between a standard number of Jurkat cells and a standard amount of CS-1 peptide bound to the surface of a microtiter plate well. Those concentrations are conveniently expressed as IC50 values, smaller numbers indicating a lower concentration required to inhibit 50 percent binding and therefore greater potency. Further specifics of this assay are provided hereinafter.
Jurkat cells (ATCC TIB 152), a human T lymphoblastic line, labeled with ^51 chromium were used to assay in vitro binding inhibition provided by various peptides discussed herein.
The plates were prepared as follows: The 25-mer CS-1 peptide (SEQ ID NO:5) dissolved at 0.5-1 μg/ml in a buffer of 0.1M NaHCO3 at pH 9.5 that also contained 10 μg/ml of bovine serum albumin (BSA) or a conjugate of the CS-1 peptide linked to ovalbumin (CS-1-OVA) dissolved at 1-2.5 μg/ml in the same buffer was used as the substrate. Each well of the microtiter plates was coated with 50 μl of substrate or buffer alone for controls. The wells were permitted to dry out completely and were then rinsed twice with PBS at pH 7.4. Non-specific binding sites of each well were then blocked using 200 μl per well of RPMI/1 percent BSA for two hours at room temperature. Both solid phase-affixed substrates provided similar results.
Jurkat cells (3-5×10^6 cells) were placed into a 15 ml FALCON™ round-bottom tube with a cap. The tube was centrifuged, and the extra medium was then removed.
Two hundred microliters of a ^51 Cr labeling solution were added to the centrifuged cells and maintained in contact with the cells for 90-120 minutes in a warm room. This procedure typically provides about 50,000-100,000 cpm/well with about 80-100 percent cell viability. Longer contact times provide a greater amount of labeling but lower cell viability.
The labeled cells were washed with (i) complete medium, (ii) 1 mM EDTA/PBS and then (iii) RPM1/1 percent BSA free of serum components. The cells were centrifuged after each washing. The cells were finally resuspended in serum-free RPMI/1 percent BSA at a concentration of 1×10^6 viable cells/ml, which provides a concentration that is diluted by one-half in the assay.
Cyclic inhibitor peptides were prepared as stock solutions at 20 mg/ml in DMSO in 1.5 ml cryogenic screwcap vials, and were stored at -70° C. Using FLOW™ round-bottom or V-bottom microtiter plates, the inhibitor peptides were prepared at twice the assay concentration in RPMI/1 percent BSA at 60 μl/well.
Four initial dilutions were typically used.
The ^51 Cr-labeled cells (1×10^6 cells at 60 μl/well) were then admixed with the diluted cyclic peptide solutions. The admixtures were maintained at room temperature (about 22° C.) for 30 minutes.
One hundred microliters of each inhibitor peptide/cell admixture were transferred to the substrate-coated wells. This was done in triplicate for each dilution. The resulting plates were incubated for 30 minutes at 37° C. and then washed gently three times with RPMI/1 percent BSA at 200 μl/well. Binding was observed microscopically, particularly after the second wash.
The bound cells were then lysed by the addition of a 0.5 percent solution of sodium dodecylsulfate in water at 100 μl/well. The resulting solutions were then processed for counting and calculation of IC50 values following usual procedures. Appropriate positive and negative controls were used with each plate so that the results of separate assays could be normalized and compared.
The potency data of Table 1 and Table 2 are so normalized. The absolute IC50 value for the peptide of SEQ ID NO:7 is 0.3 μM.

[3] = target: T2, VLA-4/sVCAM-1 (Homo sapiens, UniProt P05556+P13612); assay: In vitro inhibition of binding of Jurkat cells to solid phase-bound sVCAM-1; type: cell-based
T2 construct: host or cells: Jurkat cells (VLA-4). sVCAM-1 was made in house in transfected human 293 cells (ATCC CRL 1573) and purified from supernatant
T2 sequence (P13612 34-1032): as the sequence (P13612 34-1032) above
T2 sequence (P05556 21-798): as the sequence (P05556 21-798) above
Procedure: Assays conducted using sVCAM-1 as solid phase-bound antigen were carried out substantially identically to those using CS-1. The sVCAM-1 polypeptide used had the same amino acid residue sequence as the materials described in Lobb et al., Biochem. Biophys. Res. Commun., 178:1498-1504 (1991) and Cybulsky et al., Proc. Natl. Acad. Sci., USA, 88:7859-7863 (1991). Human embryonal kidney line 293 (ATCC CRL 1573) cells were co-transfected with a plasmid (pCDNAI;invitrogen) containing the sVCAM-1 DNA sequence and plasmid pSV2-neo [Southern et al., J. Mol. Appl. Gen., 1:327341 (1992)]. Cells were selected in DMEM, 10 percent fetal bovine serum and 600 μg/ml Geneticin. sVCAM-1 was purified from supernatants using a column containing monoclonal antibody P3H12 (anti-human VCAM-1) coupled to Sepharose 4B. The sVCAM-1 was eluted using 0.1M glycine at pH 2.5 following 50 column washes with PBS, pH 7.2. The eluate was immediately neutralized and dialyzed against PBS for use.

[4] = system: Porcine peripheral blood lymphocytes; assay: In vitro porcine allograft model, transendothelial lymphocyte migration; type: cell-based; conditions: 10 μg/ml in the medium, IL-1β-stimulated SMC
Procedure: A similar study is carried out in vitro using porcine coronary artery endothelial cells (EC; as are present in the IEL) and smooth muscle cells (SMC; as are present in the medial layer of the artery). The two cell types are cultured using a membrane transwell system, with the SMC on the bottom layer in M-199 medium (Gibco Labs.). The SMC are stimulated with 100 ng/ml of interleukin-1β (IL-1β) for 24 hours prior to the start of the assay. Porcine peripheral blood lymphocytes are separated by Ficoll-Hypaque, radiolabeled and incubated overnight (about 18 hours) on the EC.
Transendothelial lymphocyte migration in the IL-1β-stimulated SMC is observed as compared to unstimulated SMC (p<0.05).

[5] = in vivo; cited from earlier work
[6] = Table 2, normalized, relative to standard peptide of SEQ ID NO:6
[7] = Table 1, normalized IC50, standard peptide of SEQ ID NO:6 = 1

Compound: NC(=O)[C@@H]1CSSC[C@H](NC(=O)Cc2ccccc2)C(=O)N[C@@H](CC(=O)O)C(=O)N[C@@H](Cc2ccccc2)C(=O)N1 [SEQ ID NO:7, N-phenylacetyl-Cys-Asp-Phe-Cys-NH2] (PhAc-CDFC-NH2; disulfide 1-4)
loss of potency after 24 hours ([1]; 24 hours): no loss of potency
potency relative to the best linear peptide (XLDFZ), Jurkat cell binding to CS-1 [2]: about two-thirds
IC50 ([2]; Jurkat cells, solid phase-bound CS-1, read-out: absolute IC50 value): 300 nM
Relative Potency [2, 6]: 954
CS-1 binding inhibition potencies relative to each other ([2]; XLDFp = 1): ~1.8
inhibition potency relative to the Standard 10-mer of SEQ ID NO:6 ([2]; times more potent than standard 10-mer): 500-600 and ~563
potency relative to the best linear peptide (XLDFZ), Jurkat cell binding to sVCAM-1 [3]: about 3 times

Compound: CC(C)C[C@@H]1NC(=O)[C@H](Cc2ccccc2)NC(=O)[C@@H](N)CSSC[C@@H](C(N)=O)NC(=O)[C@H](CO)NC(=O)[C@@H]2CCCN2C(=O)[C@H](Cc2ccccc2)NC(=O)[C@H](CC(=O)O)NC1=O [SEQ ID NO:13, CFLDFPSC--NH2] (H-CFLDFPSC-NH2; disulfide 1-8)
transendothelial lymphocyte migration [4]: reduces lymphocyte migration

Compound: .phi.AcJDFc-NH2 (PhAc-[Pen]DF[dC]-NH2; disulfide 1-4)
Relative Potency [2, 7]: 4
Relative Potency [2, 6]: 4.07

Compound: CS-1 peptide: 25-residue (25-mer) CS-1 portion of fibronectin that binds to the VLA-4 receptor (DELPQLVTLPHPNLHGPEILDVPST) [reference compound]
clearance from blood circulation [5]: rapidly cleared
time in which potency is lost [1]: less than one

Compound: ILDVPILDVP-NH2 [compound 26]
Relative Potency [2, 7]: 2

Second part, the compound after the results:

Relative Potency [2, 7]: < 1
Compound: NC(=O)[C@@H]1CCCN1C(=O)[C@@H]1CSSC[C@H](NC(=O)[C@@H](N)Cc2ccccc2)C(=O)N[C@@H](CC(=O)O)C(=O)N1 [compound 30] (H-FCDCP-NH2; disulfide 2-4)

Relative Potency [2, 7]: 31
Compound: CC(C)C[C@@H]1NC(=O)[C@H](CCC(=O)O)NC(=O)[C@@H]2CCCN2C(=O)[C@@H](N)CSSC[C@@H](C(N)=O)NC(=O)[C@H](CO)NC(=O)[C@@H]2CCCN2C(=O)[C@H](Cc2ccccc2)NC(=O)[C@H](CC(=O)O)NC1=O [compound 33] (H-CPELDFPSC-NH2; disulfide 1-9)

Relative Potency [2, 7]: 2
Compound: ILDFP-NH2 [compound 27]

Relative Potency [2, 7]: < 1
Compound: SFDFS-NH2 [compound 31]
